Assay results taken from ChEMBL document CHEMBL1201862, “PubChem BioAssay data set” (2004).
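Interpolation was linear, between the two tested concentrations surrounding the appropriate level; five concentrations were tested over 48 hours in 96-well plates. GI50 is the concentration that inhibits growth by half.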 Activity calls are given as the source filed them. Rule as the data show it: active = GI50 up to about 1.1 µM and inactive = higher.

Legend:
Test in all cases: DTP human tumour cell line panel, 48 h
LOX IMVI = test system: LOX IMVI
UO-31 = test system: UO-31
EKVX = test system: EKVX
A498 = test system: A498
SNB-19 = test system: SNB-19
CCRF-CEM = test system: CCRF-CEM
KM12 = test system: KM12
SN12C = test system: SN12C
HCT-116 = test system: HCT-116
OVCAR-4 = test system: OVCAR-4
CAKI-1 = test system: CAKI-1
786-0 = test system: 786-0
K562 = test system: K562
SF-295 = test system: SF-295
T47D = test system: T47D
HOP-62 = test system: HOP-62
M14 = test system: M14
A549 = test system: A549
SNB-75 = test system: SNB-75

| SMILES | GI50 (LOX IMVI) | GI50 (UO-31) | GI50 (EKVX) | GI50 (A498) | GI50 (SNB-19) | GI50 (CCRF-CEM) | GI50 (KM12) | GI50 (SN12C) | GI50 (HCT-116) | GI50 (OVCAR-4) | GI50 (CAKI-1) | GI50 (786-0) | GI50 (K562) | GI50 (SF-295) | GI50 (T47D) | GI50 (HOP-62) | GI50 (M14) | GI50 (A549) | GI50 (SNB-75) |
| --- | --- | --- | --- | --- | --- | --- | --- | --- | --- | --- | --- | --- | --- | --- | --- | --- | --- | --- | --- |
| CCOC(=O)C(C(N)=O)C1=Nc2cc([N+](=O)[O-])ccc2N/C1=C\C(=O)c1ccc(C)cc1 (configuration not stated) | 23.3 µM (inactive) | 17.6 µM (inactive) | 26.7 µM (inactive) | 27.8 µM (inactive) | 20.7 µM (inactive) | 23.6 µM (inactive) | 31.2 µM (inactive) | 26.2 µM (inactive) | 20.7 µM (inactive) | 43.6 µM (inactive) | 46.6 µM (inactive) | 13.1 µM (inactive) | 2.46 µM (inactive) | 19.4 µM (inactive) | 60.1 µM (inactive) | 16.8 µM (inactive) | 38.3 µM (inactive) | 26.9 µM (inactive) | 16.1 µM (inactive) |
| CNC(=O)N(C1=NCC(C)S1)c1ccc(C)c(C)c1 (configuration not stated) | 5.09 µM (inactive) | 8.26 µM (inactive) | 6.55 µM (inactive) | 2.99 µM (inactive) | 6.64 µM (inactive) | 2.39 µM (inactive) | 3.15 µM (inactive) | 7.23 µM (inactive) | 3.5 µM (inactive) | 13.6 µM (inactive) | 2.7 µM (inactive) | 4.74 µM (inactive) | 0.923 µM (active) | 3.17 µM (inactive) | 7.33 µM (inactive) | 5.98 µM (inactive) | 1.13 µM (inactive) | 6.52 µM (inactive) | 1.31 µM (inactive) |
| c1cc(-c2ncc(-c3ccc4c(c3)CCCO4)o2)ccn1 | 8.41 µM (inactive) | 23.2 µM (inactive) | 18.6 µM (inactive) | 10.6 µM (inactive) | 8.79 µM (inactive) | 4.83 µM (inactive) | – | 25.8 µM (inactive) | 10.7 µM (inactive) | 18 µM (inactive) | 20 µM (inactive) | 26.6 µM (inactive) | 1.85 µM (inactive) | 16.6 µM (inactive) | 12.5 µM (inactive) | 18.1 µM (inactive) | 21.6 µM (inactive) | 7.41 µM (inactive) | 2.08 µM (inactive) |
| O=[N+]([O-])c1cc(Cc2cc([N+](=O)[O-])c3cccnc3c2O)c(O)c2ncccc12 | 3.91 µM (inactive) | 4 µM (inactive) | 6.37 µM (inactive) | 14.2 µM (inactive) | 6.78 µM (inactive) | 1.77 µM (inactive) | 6.71 µM (inactive) | 4.55 µM (inactive) | 3.35 µM (inactive) | 4.05 µM (inactive) | 8.77 µM (inactive) | 5.82 µM (inactive) | 4.16 µM (inactive) | 6.15 µM (inactive) | 4.48 µM (inactive) | 9.1 µM (inactive) | 6.07 µM (inactive) | 6.56 µM (inactive) | 7.18 µM (inactive) |
| Cc1cc(NS(=O)(=O)c2ccc(NC(=O)c3ccc4nc5ccccc5c(Nc5ccc(S(N)(=O)=O)cc5)c4c3)cc2)no1 | 13.6 µM (inactive) | 20.1 µM (inactive) | 24.7 µM (inactive) | 55.5 µM (inactive) | 58.2 µM (inactive) | 22.6 µM (inactive) | 22.9 µM (inactive) | 27.2 µM (inactive) | 24.8 µM (inactive) | 27.4 µM (inactive) | 38.1 µM (inactive) | 17.1 µM (inactive) | 19.8 µM (inactive) | 26.6 µM (inactive) | 24.2 µM (inactive) | 33.6 µM (inactive) | 30 µM (inactive) | 24.6 µM (inactive) | 38.2 µM (inactive) |
| S=c1ssc2c3ssc(=S)c3n(Cc3ccccc3)c12 | 43.2 µM (inactive) | 20.3 µM (inactive) | 69.7 µM (inactive) | > 100 µM (inactive) | > 100 µM (inactive) | 17.2 µM (inactive) | > 100 µM (inactive) | > 100 µM (inactive) | > 100 µM (inactive) | > 100 µM (inactive) | > 100 µM (inactive) | 37.3 µM (inactive) | 40.9 µM (inactive) | > 100 µM (inactive) | 22.3 µM (inactive) | > 100 µM (inactive) | > 100 µM (inactive) | > 100 µM (inactive) | 98.4 µM (inactive) |
| CCc1nc(N)nc(N)c1-c1ccc(NCCN)c([N+](=O)[O-])c1 | 4.24 µM (inactive) | > 100 µM (inactive) | 29 µM (inactive) | 17.7 µM (inactive) | 24.7 µM (inactive) | 4.41 µM (inactive) | 17.7 µM (inactive) | 12.1 µM (inactive) | 2.52 µM (inactive) | 20.7 µM (inactive) | 53.1 µM (inactive) | 7.03 µM (inactive) | 1.09 µM (active) | 11.3 µM (inactive) | 33.6 µM (inactive) | 18.2 µM (inactive) | 8.63 µM (inactive) | 4.19 µM (inactive) | 19.7 µM (inactive) |
| O=c1[nH]c(=O)n(C2C(CO)OC(CO)C2O)cc1F (configuration not stated) | > 100 µM (inactive) | > 100 µM (inactive) | > 100 µM (inactive) | > 100 µM (inactive) | > 100 µM (inactive) | > 100 µM (inactive) | > 100 µM (inactive) | > 100 µM (inactive) | > 100 µM (inactive) | > 100 µM (inactive) | > 100 µM (inactive) | > 100 µM (inactive) | > 100 µM (inactive) | > 100 µM (inactive) | > 100 µM (inactive) | > 100 µM (inactive) | > 100 µM (inactive) | > 100 µM (inactive) | > 100 µM (inactive) |
| O=C1C2CC[C@@H]3C(=O)C(Cl)(Cl)[C@@H]3CCC2C1(Cl)Cl (some centres not stated) | 44 µM (inactive) | > 100 µM (inactive) | > 100 µM (inactive) | > 100 µM (inactive) | > 100 µM (inactive) | 23.3 µM (inactive) | > 100 µM (inactive) | > 100 µM (inactive) | > 86.5 µM (inactive) | > 100 µM (inactive) | > 100 µM (inactive) | > 100 µM (inactive) | 44.8 µM (inactive) | > 100 µM (inactive) | > 100 µM (inactive) | 3.24 µM (inactive) | > 100 µM (inactive) | > 100 µM (inactive) | > 100 µM (inactive) |
| CCN(CC)COC(=S)S | 41.8 µM (inactive) | 62.5 µM (inactive) | > 100 µM (inactive) | > 100 µM (inactive) | > 100 µM (inactive) | 0.0162 µM (active) | > 76.2 µM (inactive) | > 100 µM (inactive) | 40.4 µM (inactive) | 48.8 µM (inactive) | > 67 µM (inactive) | 33.3 µM (inactive) | 38 µM (inactive) | > 77.6 µM (inactive) | > 100 µM (inactive) | 48.8 µM (inactive) | 44.1 µM (inactive) | > 100 µM (inactive) | 30.5 µM (inactive) |
| CC1=CC(=O)/C(=C/NC(=S)NCc2ccccc2)C(=O)O1 | > 100 µM (inactive) | > 100 µM (inactive) | > 100 µM (inactive) | 43.9 µM (inactive) | > 100 µM (inactive) | > 100 µM (inactive) | > 100 µM (inactive) | > 100 µM (inactive) | > 100 µM (inactive) | > 100 µM (inactive) | > 100 µM (inactive) | > 100 µM (inactive) | – | > 100 µM (inactive) | > 100 µM (inactive) | > 100 µM (inactive) | > 100 µM (inactive) | > 100 µM (inactive) | 80 µM (inactive) |
| O=c1cnn(C/C=C/CBr)c(=O)[nH]1 | 16.1 µM (inactive) | 14.1 µM (inactive) | 19.6 µM (inactive) | 14.9 µM (inactive) | 24.7 µM (inactive) | 15.2 µM (inactive) | 17.5 µM (inactive) | 17.9 µM (inactive) | – | 20.6 µM (inactive) | 12.9 µM (inactive) | – | 21.4 µM (inactive) | – | 19.1 µM (inactive) | 17.9 µM (inactive) | 15.3 µM (inactive) | 16.8 µM (inactive) | 18.8 µM (inactive) |
| Oc1ccc2c(c1)OCC(O)(c1ccccc1O)C2 (configuration not stated) | > 100 µM (inactive) | > 100 µM (inactive) | > 100 µM (inactive) | > 100 µM (inactive) | > 100 µM (inactive) | > 100 µM (inactive) | > 100 µM (inactive) | > 100 µM (inactive) | > 100 µM (inactive) | > 100 µM (inactive) | > 100 µM (inactive) | > 100 µM (inactive) | > 100 µM (inactive) | > 100 µM (inactive) | > 100 µM (inactive) | > 100 µM (inactive) | > 100 µM (inactive) | – | 61.4 µM (inactive) |
| CC1=CCC[C@]2(C)C1=CC(=O)O[C@H]2c1ccoc1 | > 100 µM (inactive) | 44.6 µM (inactive) | > 100 µM (inactive) | > 100 µM (inactive) | 23.6 µM (inactive) | > 100 µM (inactive) | > 100 µM (inactive) | > 100 µM (inactive) | > 100 µM (inactive) | > 100 µM (inactive) | > 100 µM (inactive) | > 100 µM (inactive) | > 100 µM (inactive) | > 100 µM (inactive) | > 100 µM (inactive) | > 100 µM (inactive) | – | > 100 µM (inactive) | > 100 µM (inactive) |
| COc1c2c(cc3c1C1(O)Cc4ccc5c(c4C[N+]1(C)CC3)OCO5)OCO2 (configuration not stated) | 62.1 µM (inactive) | – | 87.3 µM (inactive) | > 100 µM (inactive) | > 100 µM (inactive) | 82.8 µM (inactive) | > 100 µM (inactive) | > 100 µM (inactive) | 35.1 µM (inactive) | > 100 µM (inactive) | > 100 µM (inactive) | > 100 µM (inactive) | 37.3 µM (inactive) | > 100 µM (inactive) | > 100 µM (inactive) | > 100 µM (inactive) | > 100 µM (inactive) | > 100 µM (inactive) | > 100 µM (inactive) |
